For 20 molecules, T/C results are on record in PubChem BioAssay AID330 (DTP/NCI, 2004).

Several values for one entry are separate records, joined by “and”; a condition that tells them apart may be missing. Identical values can stand only once. Toxic doses and inconclusive results are not listed. Peptide text beside a SMILES is read from it.

This test has as its system P388 leukemia ip, CD2F1 mice, survival T/C. The test can be described thus: NCI In Vivo Anticancer Drug Screen. Data for tumor model P388 Leukemia (intraperitoneal) in CD2F1 (CDF1) mice. The conditions noted are these: endpoint: median survival time, higher = longer survival. The gist of the method:
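Mice carrying the transplanted tumor received test compound or vehicle. Survival was recorded in each group, and the value is the treated-group measurement divided by that of the vehicle-treated control group.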

Setting [1] is: dose: 100.0 mg/kg/injection, schedule: Q04DX003 (ip), vehicle: Klucel (hydroxypropylcellulose) (HPC).
The mark [2] stands for this setting: dose: 200.0 mg/kg/injection, schedule: Q04DX003 (ip), vehicle: Klucel (hydroxypropylcellulose) (HPC).
[3] abbreviates: dose: 50.0 mg/kg/injection, schedule: Q01DX005 (ip), vehicle: saline.
The mark [4] stands for this setting: dose: 100.0 mg/kg/injection, schedule: Q01DX005 (ip), vehicle: saline.
Setting [5] is: dose: 50.0 mg/kg/injection, schedule: Q01DX005 (ip), vehicle: saline with Tween-80.
Where [6] appears, read: dose: 100.0 mg/kg/injection, schedule: Q01DX005 (ip), vehicle: saline with Tween-80.
Where [7] appears, read: dose: 200.0 mg/kg/injection, schedule: Q01DX005 (ip), vehicle: saline with Tween-80.

On to `Cc1ccc(N2CCN(C(=O)C3=Cc4ccccc4OC3)CC2)cc1C`, for which the T/C by setting is: under setting [1], 100 % of control; under setting [2], 88 % of control.

In the case of `CC(C)/[N+]([O-])=N\O`, the T/C is 101 % of control (dose: 3.0 mg/kg/injection, schedule: Q01DX005 (ip), vehicle: Klucel (hydroxypropylcellulose) (HPC)); 98 % of control (dose: 6.0 mg/kg/injection, schedule: Q01DX005 (ip), vehicle: Klucel (hydroxypropylcellulose) (HPC)); 100 % of control (dose: 12.0 mg/kg/injection, schedule: Q01DX005 (ip), vehicle: Klucel (hydroxypropylcellulose) (HPC)); 98 % of control (dose: 24.0 mg/kg/injection, schedule: Q01DX005 (ip), vehicle: Klucel (hydroxypropylcellulose) (HPC)).

Regarding `O=C1CSCC(=O)OCCOCCOCCO1`, the T/C (dose: 100.0 mg/kg/injection, schedule: Q04DX003 (ip), vehicle: suspension in saline) is 104 % of control; the T/C (dose: 200.0 mg/kg/injection, schedule: Q04DX003 (ip), vehicle: suspension in saline) is 101 % of control; the T/C (dose: 400.0 mg/kg/injection, schedule: Q04DX003 (ip), vehicle: suspension in saline) is 101 % of control.

For the molecule `COc1cc2ccc(C(C)=O)c(O)c2cc1OC`, the T/C by setting is: (dose: 12.5 mg/kg/injection, schedule: Q01DX009 (ip), vehicle: other) 92 % of control; (dose: 25.0 mg/kg/injection, schedule: Q01DX009 (ip), vehicle: other) 101 % of control; (dose: 50.0 mg/kg/injection, schedule: Q01DX009 (ip), vehicle: other) 90 % of control; (dose: 100.0 mg/kg/injection, schedule: Q01DX009 (ip), vehicle: other) 108 % of control; (dose: 200.0 mg/kg/injection, schedule: Q01DX009 (ip), vehicle: other) 97 % of control; (dose: 400.0 mg/kg/injection, schedule: Q01DX009 (ip), vehicle: other) 99 % of control.

Turning to `CN(C)c1ccc(C(=N)Cc2ccc3ccccc3n2)cc1`, the T/C (dose: 37.5 mg/kg/injection, schedule: Q01DX009 (ip), vehicle: Klucel (hydroxypropylcellulose) (HPC)) was 106 % of control; the T/C (dose: 50.0 mg/kg/injection, schedule: Q01DX009 (ip), vehicle: Klucel (hydroxypropylcellulose) (HPC)) was 92 % of control; the T/C (dose: 75.0 mg/kg/injection, schedule: Q01DX009 (ip), vehicle: Klucel (hydroxypropylcellulose) (HPC)) was 98 % of control; the T/C (dose: 100.0 mg/kg/injection, schedule: Q01DX009 (ip), vehicle: Klucel (hydroxypropylcellulose) (HPC)) is 95 % of control; the T/C (dose: 150.0 mg/kg/injection, schedule: Q01DX009 (ip), vehicle: Klucel (hydroxypropylcellulose) (HPC)) is 109 % of control; the T/C (dose: 200.0 mg/kg/injection, schedule: Q01DX009 (ip), vehicle: Klucel (hydroxypropylcellulose) (HPC)) was 100 % of control.

Consider `CC(C)CC(NC(=O)C(N)CC(=O)O)C(=O)O` (stereo not drawn) (H-Asp-Leu-OH; configuration not given here), for which the T/C by setting is: (dose: 50.0 mg/kg/injection, schedule: Q01DX005 (ip), vehicle: Klucel (hydroxypropylcellulose) (HPC)) 100 % of control; (dose: 100.0 mg/kg/injection, schedule: Q01DX005 (ip), vehicle: Klucel (hydroxypropylcellulose) (HPC)) 98 % of control; (dose: 200.0 mg/kg/injection, schedule: Q01DX005 (ip), vehicle: Klucel (hydroxypropylcellulose) (HPC)) 99 % of control.

For `CC(CN(C)C)C(/C=C/c1ccccc1)=N\Nc1ccccc1` (configuration not stated), the T/C is, setting by setting: (dose: 15.0 mg/kg/injection, schedule: Q01DX005 (ip), vehicle: saline) 98 % of control; (dose: 30.0 mg/kg/injection, schedule: Q01DX005 (ip), vehicle: saline) 103 % of control; (dose: 60.0 mg/kg/injection, schedule: Q01DX005 (ip), vehicle: saline) 99 % of control and 107 % of control.

Consider `C=C(CC1(O)C(C2COC(C)(C)O2)OC2OC(C)(C)OC21)C(=O)OCC` (configuration not stated), for which the T/C by setting is: under setting [3], 96 % of control; under setting [4], 98 % of control; (dose: 200.0 mg/kg/injection, schedule: Q01DX005 (ip), vehicle: saline) 105 % of control.

For `C=CC12COC(=O)CC1CCC(=O)C2` (configuration not stated), the T/C is 99 % of control under setting [1] and 100 % of control under setting [2].

`C=CC(=O)NN=C(c1ccccc1)c1ccccc1`: the T/C runs as follows: (dose: 42.0 mg/kg/injection, schedule: Q01DX009 (ip), vehicle: saline with Tween-80) 98 % of control; (dose: 84.0 mg/kg/injection, schedule: Q01DX009 (ip), vehicle: saline with Tween-80) 103 % of control; (dose: 168.0 mg/kg/injection, schedule: Q01DX009 (ip), vehicle: saline with Tween-80) 100 % of control.

With `O=C1c2sccc2C2NC12` (configuration not stated), the T/C is 91 % of control under setting [3] and 100 % of control under setting [4].

In the case of `COc1cccc(/C=C/C(C)=N/NC(N)=S)c1`, the T/C by setting is: (dose: 6.25 mg/kg/injection, schedule: Q01DX005 (ip), vehicle: saline with Tween-80) 107 % of control; (dose: 12.5 mg/kg/injection, schedule: Q01DX005 (ip), vehicle: saline with Tween-80) 107 % of control; (dose: 25.0 mg/kg/injection, schedule: Q01DX005 (ip), vehicle: saline with Tween-80) 111 % of control; under setting [5], 118 % of control; under setting [6], 101 % of control.

Turning to `CCOC(=O)COc1ccc(CC)cc1Cc1ccc(OC)cc1`, the T/C was 97 % of control under setting [5], 111 % of control under setting [6] and 111 % of control under setting [7].

As for `N#C/C(N)=C(\C#N)N=Cc1ccc(N(CCCl)CCCl)cc1`, the T/C under setting [5] is 100 % of control, the T/C under setting [6] is 104 % of control and the T/C under setting [7] was 92 % of control.

For the molecule `CC(=O)OCCS(CCOC(C)=O)=NS(=O)(=O)c1ccc(C)cc1`, the T/C was 108 % of control (dose: 50.0 mg/kg/injection, schedule: Q01DX009 (ip), vehicle: saline); 108 % of control (dose: 100.0 mg/kg/injection, schedule: Q01DX009 (ip), vehicle: saline); 106 % of control (dose: 200.0 mg/kg/injection, schedule: Q01DX009 (ip), vehicle: saline).

In the case of `CC(=O)OC1C(=O)C2(C)C(O)CC3OCC3(OC(C)=O)C2C(OC(=O)c2ccccc2)C2(O)CC(OC(=O)C(O)C(NC(=O)c3ccccc3)c3ccccc3)C(C)=C1C2(C)C` (configuration not stated), the T/C was 106 % of control (dose: 2.5 mg/kg/injection, schedule: Q01DX005 (ip), vehicle: DMSO); 121 % of control (dose: 5.0 mg/kg/injection, schedule: Q01DX005 (ip), vehicle: DMSO); 167 % of control (dose: 20.0 mg/kg/injection, schedule: Q01DX005 (ip), vehicle: DMSO).

For the molecule `CC(/C=C/c1ccco1)=N\NC(=S)Nc1ccc(Br)cc1`, the T/C reads like this: (dose: 100.0 mg/kg/injection, schedule: Q04DX002 (ip), vehicle: Klucel (hydroxypropylcellulose) (HPC)) 97 % of control; (dose: 200.0 mg/kg/injection, schedule: Q04DX002 (ip), vehicle: Klucel (hydroxypropylcellulose) (HPC)) 97 % of control; (dose: 400.0 mg/kg/injection, schedule: Q04DX002 (ip), vehicle: Klucel (hydroxypropylcellulose) (HPC)) 92 % of control.

On to `Cc1ncc(CO)c(C2NCCS2)c1O` (configuration not stated), for which the T/C is 100 % of control (dose: 60.0 mg/kg/injection, schedule: Q01DX005 (ip), vehicle: saline with Tween-80); 107 % of control (dose: 120.0 mg/kg/injection, schedule: Q01DX005 (ip), vehicle: saline with Tween-80); 107 % of control (dose: 240.0 mg/kg/injection, schedule: Q01DX005 (ip), vehicle: saline with Tween-80).

On to `O=C(O)c1ccc(N=Cc2ccc3c(c2)OCO3)cc1`, for which the T/C (dose: 25.0 mg/kg/injection, schedule: Q04DX003 (ip), vehicle: saline) is 100 % of control; the T/C (dose: 50.0 mg/kg/injection, schedule: Q04DX003 (ip), vehicle: saline) was 102 % of control; the T/C (dose: 100.0 mg/kg/injection, schedule: Q04DX003 (ip), vehicle: saline) is 96 % of control; the T/C (dose: 200.0 mg/kg/injection, schedule: Q04DX003 (ip), vehicle: saline) was 94 % of control.

With `COC(=O)C(C#N)=C(SC)SC`, the T/C was 112 % of control (dose: 12.5 mg/kg/injection, schedule: Q01DX009 (ip), vehicle: saline with Tween-80); 116 % of control (dose: 25.0 mg/kg/injection, schedule: Q01DX009 (ip), vehicle: saline with Tween-80); 103 % of control and 91 % of control (dose: 50.0 mg/kg/injection, schedule: Q01DX009 (ip), vehicle: saline with Tween-80).
